Measurements as given in patent US20070049626A1, “Treating premature ejaculation using gabapentin and pregabalin prodrugs” (priority 2005, published 2007).

Legend:
[1] = system: PCA-induced ejaculation in anaesthetized rats; assay: p-chloroamphetamine (PCA)-induced ejaculation in anaesthetized rats; format: in vivo, rat; details: for effect on PCA-induced ejaculation: 1, 3, 10 or 30 mg/kg po, 60 min prior to PCA; for quality of erection: PCA model; for ejaculatory latency: doses above 3 mg/kg po, excipient-only about 300 s
Procedure: (§1) For all the sexual behavior tests, the rapid ejaculating Sprague Dawley rats, weighing 350-450 g, are used as an animal model of premature ejaculation (classified as ejaculatory latency <300 s during baseline assessment). Prior to the experiments the animals are housed in groups (2 rats per cage) under controlled 12 h light-dark cycle (lights on at 07:00), constant temperature (23±1° C.), and humidity (55±5%). The animals are given free access to standard food pellets and water.
The compounds are dosed orally by taking the tablets of Examples 1 and 2, finely crushing them and suspending the resulting powder in an aqueous vehicle for oral administration to rats by gavage. Compounds (100) and (101) are tested at 1, 3, 10 or 30 mg/kg po, 60 min prior to PCA administration. Compounds (100) and (101) each dose-dependently increases ejaculatory latency by up to 250%. As a baseline comparison, some of the rats are given a placebo formulation similar to Examples 1 and 2, but containing no prodrug.

[2] = system: rapid ejaculating Sprague Dawley rats; assay: Copulatory behavior in rapid ejaculating conscious rats (model of premature ejaculation); format: in vivo, rat; details: rapidly-ejaculating conscious rats; for other effects on copulatory behavior: 10 mg/kg oral; for increase of ejaculatory latency / ejaculatory latency (time to ejaculate): 10 mg/kg, 60 min post oral dosing; for increase of ejaculatory latency: P<0.01; for ejaculatory latency (time to ejaculate): excipient-only about 140 s
Procedure: as §1
The rats are placed in an observation arena (50-60 cm diameter), starting 5 hours into the dark cycle and observed under red illumination. Three to four minutes after placing the male in the arena, a receptive female (ovariectomised, oestradiol benzoate/progesterone injection 48 hour before behavioral study) is introduced into the arena and the following parameters are noted: (i) ejaculatory latency (EJL; time taken from addition of receptive female into the arena to ejaculation); (ii) copulatory efficiency (CE; ejaculatory latency/the number of intromissions to ejaculation, i.e., the number of seconds between intromissions); (iii) intromission frequency (IF; the number of intromissions to ejaculation); (iv) mount frequency (MF; the number of mounts to ejaculation); (v) post ejaculatory interval (PEI; the time taken from ejaculation to the commencement of copulatory behavior).
Rodent copulatory behavior is characterized by a series of mounts, with and without vaginal insertion (50-80% of mounts result in intromission (vaginal penetration)) and ejaculation occurs after 6 to 12 intromissions. Each intromission lasts a matter of seconds—it is not possible to quantify intromission length i.e., intravaginal latency. The effect of compounds (100) and (101) is assessed on a number of copulatory parameters (see above). We are focusing on ejaculatory latency as an objective clinical outcome measure of time taken to achieve ejaculation. The study is performed in rapid ejaculating rats as a model of premature ejaculation (rats characterized by ejaculatory latency <300 s at baseline). Compound (100) and (101) increases ejaculatory latency by 58% in rapidly-ejaculating conscious rats (P<0.01), i.e., compound (100) and (101) (each to be dosed at 10 mg/kg, 60 min post oral dosing)-treated animals take about 200 s to ejaculate compared to about 140 s in excipient-only treated animals.

[3] = Tmax after oral administration of immediate release formulation; format: in vivo; details: human, blood, following oral administration
Excerpt: The compounds disclosed herein, for example, the gabapentin prodrug 1-{[(α-isobutanoyloxyethoxy)carbonyl]aminomethyl}-1-cyclohexane acetic acid, is more efficacious than the parent drug molecule (i.e., gabapentin) in treating premature ejaculation because the disclosed compounds require less time to reach a therapeutic concentration in the blood, i.e., the compounds disclosed herein have a shorter Tmax than their gabapentin or pregabalin “counterparts” when taken orally. […] This provides an advantage over the parent drugs (i.e., gabapentin and pregabalin) in that the patient need not wait as long after administering the prodrugs before a therapeutic concentration of the active parent drug in the blood is reached. Thus, the prodrugs disclosed herein allow the patient to dose shortly before sexual activity, allowing sexual activity to occur with more spontaneity, compared to dosing of either gabapentin or pregabalin.

Question: For `CC(C)CC(CNC(=O)OC(C)OC(=O)C(C)C)CC(=O)O` (stereo not drawn) [Compound (101), 3-{[(α-Isobutanoyloxyethoxy)carbonyl]aminomethyl}-5-methyl Hexanoic Acid], which “effect on PCA-induced ejaculation” value [1] is on record?
Answer: Its value is “significantly delays”.

Question: And the quality of erection [1]?
Answer: The quality of erection was “not influenced”.

Question: What about the ejaculatory latency [1] of the same compound?
Answer: The ejaculatory latency was “about 1000 s”.

Question: What about the “other effects on copulatory behavior” value [2] of the same compound?
Answer: Its value is “no other significant effects”.

Question: What about the “increase of ejaculatory latency” value [2] of the same compound?
Answer: The value was 58%.

Question: And the “ejaculatory latency (time to ejaculate)” value [2]?
Answer: Its value is “about 200 s”.

Question: With `NCC1(CC(=O)O)CCCCC1` [gabapentin] as the compound, how does the Tmax [3] read?
Answer: Its Tmax is 2.8 to 3.3 h.

Question: With `CC(OC(=O)NCC1(CC(=O)O)CCCCC1)OC(=O)C(C)C` (stereo not drawn) [Compound (100), 1-{[(α-Isobutanoyloxyethoxy)carbonyl]aminomethyl}-1-Cyclohexane Acetic Acid] as the compound, how does the “effect on PCA-induced ejaculation” value [1] read?
Answer: The value was “significantly delays”.

Question: What about the quality of erection [1] of the same compound?
Answer: The quality of erection was “not influenced”.

Question: And the ejaculatory latency [1]?
Answer: The ejaculatory latency was “about 1000 s”.

Question: And the “other effects on copulatory behavior” value [2]?
Answer: The value was “no other significant effects”.

Question: What about the “increase of ejaculatory latency” value [2] of the same compound?
Answer: The value was 58%.

Question: And the “ejaculatory latency (time to ejaculate)” value [2]?
Answer: Its value is “about 200 s”.
